In data set [1] the test system is human dermal fibroblast cell line (ATCC PCS-201-012). As to the kind of experiment: Scratch assay (in-vitro wound healing model) in human dermal fibroblasts (Example 5). It counts as cell-based. As to conditions: 10 μM, after 24 hours, control albumin in PBS. The method, then: (§1) A commercial human dermal fibroblast cell line (ATCC PCS-201-012) was cultured in Dulbecco's modified Eagle's medium according to the method described by Vuong et al2.
ATCC cells were seeded in wells with 2 mL culture media supplemented with 1, 2 and 4 μM Lipid composition A. Control was albumin in PBS. At ˜90-100% confluency, a scratch was created, and wells were thereafter photographed at several time points up to 24 hours. The migration of cells into the scratch/closure of wound over time was examined in light microscopy and images were taken. The scratch/wound closure rate was measured by % confluency in scratch opening (the higher values the better closure of wound).
Cells were seeded in wells with 2 mL culture media supplemented with 10 μM Lipid composition B (6 replicates). Control was albumin in PBS. At ˜90-100% confluency, a scratch was created, and wells were thereafter photographed at several time points up to 24 hours. […]
FIG. 29 provides the effect of Lipid composition B on closure rate of scratch. […] Cells were then scratched and cell migration into wound was followed at different time points (0 and 24 hours shown), using Fiji/ImageJ software, as illustrated in figure A. Scratch size was analyzed as mean percentage decline (calculated from each well's original size at 0 hours to size measured at 24 hours (n=6, results presented in figure B).

Data set [2] concerns skin cells (keratocytes) from salmon shells. As to the kind of experiment: Cellular content of C26:6n-3 in primary skin cells (keratocytes) from Atlantic salmon (Example 5, 2). Type of data set: cell-based. As to conditions: 20 µM group; 0% in the control group. As for the experimental part:
Primary cell cultures of skin cells (keratocytes) from salmon shells were isolated from freshwater Atlantic salmon. The shells were carefully placed in plate wells and incubated at 13° C. in growth media (L-15) supplemented with 10 μM or 20 μM of the Lipid composition B (26:6n-3) or 25 ng/ml fibroblast growth factor (FGF) as a positive control. Negative control was albumin in PBS.

The test system is the same in data set [3]. As to the kind of experiment: Cell migration from salmon shells (Example 5, 2). Type of data set: cell-based, Atlantic salmon. Details: cell migration from salmon shells, first time point: dose or concentration left out as unconfirmed. The method, then:
Primary cell cultures of skin cells (keratocytes) from salmon shells were isolated from freshwater Atlantic salmon. […] Negative control was albumin in PBS.
The second day after isolation of shells, all wells with the different treatments were inspected under microscope and images taken.
Salmon shells were plucked from freshwater salmon and placed in wells with culture medium, incubated at 13° C. without CO2 and inspected for cell migration the following days. […] Control was albumin in PBS. (n=6). The scale of the y—axis represents no cell migration (0%) to cell migration from all shells (100%). Different letters denote significant differences (p≤0,05).

For data set [4], the system named is ATCC human skin cells. As to the kind of experiment: Content of C26:6n-3 in ATCC human skin cells after supplementation of the culture medium (Example 5, 1B). Type of data set: cell-based. Conditions: media with 10 and 20 μM for 4 days; increase from 0.7; p=0.001 (ANOVA). As for the experimental part: as §1
ATCC cells were cultivated in a media supplemented with 10 and 20 μM Lipid composition B for 4 days before harvesting for determination of fatty acid composition. It was made a pooled sample of three replicates per group prior to lipid extraction by the method by Folch et al1.

Data set [5] deals with ATCC cells. As to the kind of experiment: Proliferation assay in ATCC human dermal fibroblasts (Example 5). It counts as cell-based. As to conditions: incubation until about 50% confluency, albumin controls. As for the experimental part:
as §1
The proliferation assay measures the density/number of cells in culture by fluorescence staining of nucleic acids.
FIG. 28 provides the measurement of cell proliferation after incubation with Lipid composition B until about 50% confluency. Results are presented as the mean±SEM (n=4). The asterisks (*) indicate significant difference between groups. Control 1 and 2 represent albumin equivalent to the albumin concentration in the 20 µM Lipid composition B substrate.

For `CC/C=C\C/C=C\C/C=C\C/C=C\C/C=C\C/C=C\CCCCCCC(=O)O` [Lipid composition B, C26:6n-3], in data set [1], the “wound closure rate by reduced size of wound diameter compared to control” value is “tendencies to increased wound closure rate”. For the same compound, the “cellular content of the C26:6n-3 fatty acid in salmon skin cells” value in data set [2] turned out to be 1.4%. In data set [3] (10 µM), the “cell migration in salmon skin cell culture relative to control” value is reported as “significantly increased cell migration”. In addition, the “cell migration from salmon shells, last time point” value in data set [3] (low dose (10 µM)) is reported as “most effect on cell migration”. Besides, the “cell migration from salmon shells, first time point” value in data set [3] (relative to albumin control) is “similar, immediate increased cell migration effect as the FGF”. Further, the “content of C26:6n-3 in ATCC human skin cells” value in data set [4] is given as 5.5 % of total FAs. The “cell count (proliferation) compared to controls” value in data set [5] was “significantly higher cell count”.

For the origin of these results see patent publication US20260014109A1, “VERY LONG CHAIN FATTY ACIDS FOR TREATMENT AND ALLEVIATION OF DISEASES” (EPAX NORWAY AS, priority 2019, published 2026).
